These results are taken from ChEMBL document CHEMBL1240518, “Replacement of the Lys linker with an Arg linker resulting in improved melanoma uptake and reduced renal uptake of Tc-99m-labeled Arg-Gly-Asp-conjugated alpha-melanocyte stimulating hormone hybrid peptide” (Bioorg Med Chem, 2010).

This assay in a line: Cytotoxicity against mouse B16-F1 cells assessed as reduction of cell survival after 3 hrs by clonogenic assay relative to control.

Residues, ends and D or L forms follow the SMILES beside them.

With `N=C(N)NCCC[C@@H]1NC(=O)CNC(=O)[C@H](CC(=O)O)NC(=O)[C@H](Cc2ccc(O)cc2)NC(=O)[C@H](CC(=O)O)NC1=O` (cyclo(DGRDY)), the Activity was determined as 7%.
